Experimental data published in ChEMBL document CHEMBL1135600, “Novel tricyclic-alpha-alkyloxyphenylpropionic acids: dual PPARalpha/gamma agonists with hypolipidemic and antidiabetic activity” (J Med Chem, 2002).

Experiments:
[1] = biological target: T1, Peroxisome proliferator-activated receptor alpha (Homo sapiens, UniProt Q07869); assay: In vitro transactivation using receptor transactivation assay against hPPAR alpha; type: functional
T1 sequence (Q07869 whole entry): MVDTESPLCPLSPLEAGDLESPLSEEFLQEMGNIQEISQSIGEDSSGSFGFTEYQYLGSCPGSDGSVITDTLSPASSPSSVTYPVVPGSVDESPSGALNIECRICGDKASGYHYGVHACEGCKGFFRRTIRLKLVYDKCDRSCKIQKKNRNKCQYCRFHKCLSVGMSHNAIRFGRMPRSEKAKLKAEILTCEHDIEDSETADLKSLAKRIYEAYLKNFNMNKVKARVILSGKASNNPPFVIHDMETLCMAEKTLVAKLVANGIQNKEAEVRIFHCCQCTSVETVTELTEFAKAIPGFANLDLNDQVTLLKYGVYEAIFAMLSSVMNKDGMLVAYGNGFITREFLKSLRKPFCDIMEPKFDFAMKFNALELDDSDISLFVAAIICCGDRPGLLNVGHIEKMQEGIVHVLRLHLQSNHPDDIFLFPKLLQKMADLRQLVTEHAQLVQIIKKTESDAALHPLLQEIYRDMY

[2] = biological target: T2, Peroxisome proliferator-activated receptor gamma (Homo sapiens, UniProt P37231)
T2 sequence (P37231 whole entry): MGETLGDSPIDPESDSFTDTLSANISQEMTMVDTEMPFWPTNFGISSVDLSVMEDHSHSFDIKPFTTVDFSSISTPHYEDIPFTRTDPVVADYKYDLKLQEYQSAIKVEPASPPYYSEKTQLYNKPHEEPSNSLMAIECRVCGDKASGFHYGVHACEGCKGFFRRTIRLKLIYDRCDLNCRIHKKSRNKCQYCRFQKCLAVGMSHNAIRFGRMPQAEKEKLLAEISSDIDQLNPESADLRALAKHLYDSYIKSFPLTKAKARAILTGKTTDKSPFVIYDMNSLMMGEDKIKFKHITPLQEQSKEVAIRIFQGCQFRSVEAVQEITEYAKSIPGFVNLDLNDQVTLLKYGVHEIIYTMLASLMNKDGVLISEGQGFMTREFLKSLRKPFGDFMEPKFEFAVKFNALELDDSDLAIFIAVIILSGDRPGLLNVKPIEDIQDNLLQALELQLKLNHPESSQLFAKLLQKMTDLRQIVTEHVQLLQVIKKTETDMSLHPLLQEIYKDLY
Description: In vitro transactivation using receptor transactivation assay against hPPAR gamma

Rattus norvegicus [3] = species on record: Rattus norvegicus; assay: Maximum achieved Total cholesterol reduction relative to vehicle treated control group; type: functional
Rattus norvegicus [4] = species on record: Rattus norvegicus; assay: Effective dose which produces the desired nonfasting triglyceride levels in high cholesterol fed male Sprgue-Dawley rats.; type: functional
Rattus norvegicus [5] = species on record: Rattus norvegicus; assay: Maximum achieved Nonfasted triglycerides reduction relative to vehicle treated control group; type: functional
Rattus norvegicus [6] = species on record: Rattus norvegicus; assay: Effective dose which produces the desired total cholesterol levels imale Sprgue-Dawley rats.; type: functional
Mus musculus [7] = species on record: Mus musculus; assay: Effective dose which produces the desired nonfasting insuline levels after 7 days in 50% of the treated male db/db mice.; type: functional; details: 168 h
[8] = Area under blood glucose time curve after OGTT on the 9th day of treatment; type: ADME, tissue-based
[9] = Volume of distribution during steady state in rat; type: ADME, organism-based; details: in vivo, read-out: Vss
Mus musculus [10] = species on record: Mus musculus; assay: Effective dose which produces the desired nonfasting triglyceride levels after 7 days in 50% of the treated male db/db mice.; type: functional; details: 168 h
[11] = Maximum plasma concentration after oral administration at a dose 2.2 mg/kg in rat; type: ADME, organism-based; design: dose 2.2 mg/kg, route oral
Mus musculus [12] = species on record: Mus musculus; assay: Maximum achieved insulin reduction relative to vehicle treated control group; type: functional
Mus musculus [13] = species on record: Mus musculus; assay: Maximum achieved triglycerides reduction relative to vehicle treated control group; type: functional
Mus musculus [14] = species on record: Mus musculus; assay: Effective dose which produces the desired nonfasting blood glucose levels after 7 days in 50% of the treated mice.; type: functional; details: 168 h
[15] = Area under plasma concentration time curve after oral administration at a dose 2.2 mg/kg in rat; type: ADME, organism-based; design: dose 2.2 mg/kg, route oral
[16] = Clearance after oral administration in rat; type: ADME, organism-based; details: in vivo
[17] = Oral half life was reported in rat; type: ADME, organism-based; details: in vivo
[18] = Oral bioavailability in rat; type: ADME, organism-based; details: in vivo

Compound | EC50 [1] [nM] | EC50 [2] [nM] | also measured
CCO[C@@H](Cc1ccc(OCCN2c3ccccc3Oc3ccccc32)cc1)C(=O)O [RAGAGLITAZAR] | 3210 | 570 | –
CCOC(Cc1ccc(OCCC2Sc3ccccc3Oc3ccccc32)cc1)C(=O)O (stereo unspecified) | 9000 | 3700 | –
CCOC(Cc1ccc(OCCC2c3ccccc3-c3ccccc32)cc1)C(=O)O (stereo unspecified) | 11700 | 490 | –
CC(C)(Oc1ccc(CCNC(=O)c2ccc(Cl)cc2)cc1)C(=O)O [BEZAFIBRATE] | – | 73500 | Reduction (Rattus norvegicus [3]): 74%; ED50 (Rattus norvegicus [4]): 16.5 mg/kg; Reduction (Rattus norvegicus [5]): 63%; ED50 (Rattus norvegicus [6]): 16.7 mg/kg
CCOC(Cc1ccc(OCC=C2c3ccccc3CCc3ccccc32)cc1)C(=O)O (stereo unspecified) | – | 12600 | –
CCOC(Cc1ccc(OCCN2c3ccccc3CCc3ccccc32)cc1)C(=O)O (stereo unspecified) | – | 750 | –
CCO[C@@H](Cc1ccc(OCCn2c3ccccc3c3cc(Br)ccc32)cc1)C(=O)O | 2400 | 330 | –
CCOC(Cc1ccc(OCC=C2c3ccccc3-c3ccccc32)cc1)C(=O)O (stereo unspecified) | 12500 | 12100 | –
CCOC(Cc1ccc(OCCn2c3ccccc3c3ccncc32)cc1)C(=O)O (stereo unspecified) | 670 | 91 | –
CCOC(Cc1ccc(OCCC2c3ccccc3Oc3ccccc32)cc1)C(=O)O (stereo unspecified) | 9600 | 460 | –
CCOC(Cc1ccc(OCC=C2c3ccccc3OCOc3ccccc32)cc1)C(=O)O (stereo unspecified) | – | 3400 | –
CCO[C@@H](Cc1ccc(OCCn2c3ccccc3c3ccncc32)cc1)C(=O)O | 140 | 11 | ED50 (Mus musculus [7]): 7.74 mg/kg; AUC ED50 [8]: 3.32 mg/kg; Vd [9]: 0.88 L/kg; ED50 (Mus musculus [10]): 2.68 mg/kg; Cmax [11]: 527 ng/mL; Max reduction (Mus musculus [12]): 77%; Max reduction (Mus musculus [13]): 50%; ED50 (Mus musculus [14]): 0.33 mg/kg; AUC [15]: 1330 ng·h/mL; CL/F [16]: 12.7 mL/min/kg; half-life [17]: 2.7 h; bioavailability [18]: 61%
